{"source": "patent US11414437B2", "about": "“Borate compound, and synthesis method therefor and uses thereof” (CHENGDU ORIGIN BIOTECHNOLOGY LIMITED COMPANY, priority 2017, dated 2022)", "key": {"[1]": {"tested_on": "MM.1S human multiple myeloma SCID mouse transplanted tumor", "assay": "Pharmacodynamic test, SCID mouse transplanted tumor model", "format": "in vivo", "settings": "0.0166 mmol/kg intragastric", "experimental": "In the experiment, a SCID mouse transplanted tumor model of a human multiple myeloma cell line MM.1S was used. Specific modeling steps were as follows: frozen MM.1S cells were resuscitated and cultured in vitro according to a routine, and the cells were collected in a logarithmic growth phase, and diluted with PBS to form a tumor cell suspension with a concentration of 5×10^7/ml. […] About 1 week to 2 weeks after injection, the mass was palpable in axillary, and in vivo passage was performed when a tumor volume was larger than 500 mm^3. After the mouse was killed by a neck pulling method, a body surface was disinfected, skin was cut open, aseptic operation was performed, a tumor tissue was peeled off from an axillary subcutaneous tissue, a fibrous capsule was removed, and the tumor was taken out. The tumor was washed clean in normal saline, and then cut, and after removing the central necrotic part, the tumor tissue with good growth, reddish color and fish flesh shape was selected, then was cut into 1 mm×1 mm×1 mm small pieces, and placed in normal saline for later use. The cut tumor was placed in a mouth of a No. 18 trocar, iodized cotton was used to disinfect the side of the armpit close to the back of the mouse, and local inoculation was performed. The transplanted tumor used in the test was the 4th generation of in vivo passage. When the tumor volume of most SCID mice of in vivo passage was larger than 100 mm^3, the tumor volume was measured and calculated, and the mice were randomly grouped according to the tumor volume.\nThe administration mode was intragastric administration through mouth, with an administration volume of 10 ml/kg. The model control group was given the same volume of solvent intragastrically. The mice were all intragastrically administrated through mouth twice a week for a total of 5 times, i.e., the mice were administrated at the 1st, 5th, 8th, 12th and 15th days of the experiment, with a duration of 18 days.\nDoses of different tested samples were equimolar, with a specific dose of 0.0166 mmol/kg; and the model control group was only given normal saline. The medicines were 8b and 8l, as well as Ixazomib Citrate (MLN9708) and Ixazomib (MLN2238).\nOn the 5th, 8th, 12th, 15th and 18th days after administration, a short diameter (a) and a long diameter (b) of the tumor of each mouse were measured with a vernier caliper, and the tumor volume was calculated according to a formula (a^2×b)/2. A relative tumor volume (RTV) was calculated based on the tumor volume measured and calculated, RTV=Vt/V0. V0 was the tumor volume at random grouping (i.e., d0) and Vt was the tumor volume at each measurement (i.e., dn). A relative tumor proliferation rate of an anti-tumor activity evaluation index was calculated according to the following formula: relative tumor proliferation rate T/C (%): […]\n(Note: TRTV was a RTV of the treatment group; and CRTV was a RTV of the model control group. An evaluation standard of a curative effect was T/C %≤40%, and the medicine was effective when P<0.05 after statistical treatment).\nAfter weighing and measuring the tumor on the 18th day, all animals were sacrificed, and the tumor was taken and weighed."}, "SD rats": {"tested_on": "SD rats", "description": "The test was a single-dose toxicity test of SD rats by intragastric administration through mouth."}, "hERG potassium channel": {"target": "hERG potassium channel (Homo sapiens, UniProt Q12809)", "sequence (Q12809 whole entry)": "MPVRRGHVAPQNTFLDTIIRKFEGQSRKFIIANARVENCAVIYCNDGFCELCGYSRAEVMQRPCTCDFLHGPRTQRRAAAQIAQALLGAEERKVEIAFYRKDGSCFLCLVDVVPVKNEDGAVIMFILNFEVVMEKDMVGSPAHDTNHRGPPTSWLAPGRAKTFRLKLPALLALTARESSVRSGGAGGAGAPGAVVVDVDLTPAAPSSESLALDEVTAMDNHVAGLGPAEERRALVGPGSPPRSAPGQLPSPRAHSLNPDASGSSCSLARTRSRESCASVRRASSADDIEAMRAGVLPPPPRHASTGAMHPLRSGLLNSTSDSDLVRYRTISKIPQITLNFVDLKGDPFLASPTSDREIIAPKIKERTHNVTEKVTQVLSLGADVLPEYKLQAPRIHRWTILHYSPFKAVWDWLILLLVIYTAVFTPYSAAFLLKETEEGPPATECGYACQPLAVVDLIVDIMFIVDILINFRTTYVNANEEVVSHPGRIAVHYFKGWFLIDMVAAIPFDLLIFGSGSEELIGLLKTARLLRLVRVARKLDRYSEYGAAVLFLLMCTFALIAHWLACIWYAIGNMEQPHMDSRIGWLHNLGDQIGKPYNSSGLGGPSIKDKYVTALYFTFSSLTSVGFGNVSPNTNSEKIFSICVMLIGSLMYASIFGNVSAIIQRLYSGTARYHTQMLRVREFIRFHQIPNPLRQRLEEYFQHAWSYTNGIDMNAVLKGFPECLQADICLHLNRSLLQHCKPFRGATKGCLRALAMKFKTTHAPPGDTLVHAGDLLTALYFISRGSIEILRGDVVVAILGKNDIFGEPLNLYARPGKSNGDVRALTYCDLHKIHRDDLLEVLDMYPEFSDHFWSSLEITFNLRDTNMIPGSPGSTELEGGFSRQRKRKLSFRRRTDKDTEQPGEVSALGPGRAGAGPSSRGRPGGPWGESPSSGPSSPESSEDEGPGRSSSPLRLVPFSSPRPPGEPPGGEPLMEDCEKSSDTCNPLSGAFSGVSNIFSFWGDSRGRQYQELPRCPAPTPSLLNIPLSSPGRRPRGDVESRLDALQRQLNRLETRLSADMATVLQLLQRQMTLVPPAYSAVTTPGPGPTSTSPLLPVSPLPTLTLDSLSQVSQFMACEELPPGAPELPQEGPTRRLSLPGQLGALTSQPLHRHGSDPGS", "assay": "Inhibition test of hERG potassium channel of heart (patch clamp)", "format": "cell-based", "description": "An inhibitory effect of the tested compound on hERG was judged by a general standard (Roche O. et al. ChemBioChem. 2002, 3:455-459.):\nWhen a hERG semi-inhibitory concentration of a medicine exceeded about 30 times of a peak concentration thereof in blood, the concentration was in a relatively safe range (Redfernelt al, Cardiovascular Research, 58, 32-45 (2003))."}, "[2]": {"assay": "High-temperature and high-humidity accelerated stability test", "format": "physicochemical", "settings": "compared with compounds 8l, MLN9708, MLN2238 of the prior art", "description": "In addition, the compound of the present invention has better stability."}, "[3]": {"settings": "dose 2, 0.001662 mmol/kg single intragastric dose, 6 female rats, 14 days observation"}, "[4]": {"settings": "dose 2, 0.001662 mmol/kg single intragastric dose, 6 male rats, 14 days observation"}, "[5]": {"settings": "dose 4, 0.00277 mmol/kg single intragastric dose, 6 female rats, 14 days observation"}, "[6]": {"settings": "dose 4, 0.00277 mmol/kg single intragastric dose, 6 male rats, 14 days observation"}}, "note": "Where two headings read alike, the source gives them in different places."}
{"smiles": "CC(C)C[C@H](NC(=O)CNC(=O)c1cc(Br)ccc1Cl)B1OC(=O)[C@@H](c2ccccc2)O1", "note": "[compound 8b, 2-chloro-5-bromo-N-[2-({(1R)-3-methyl-1-[(5R)-4-oxo-5-phenyl-1,3,2-dioxaborolan-2-yl]butyl}amino)-2-oxoethyl]benzamide]", "values": [{"measurement": "inhibition of tumor growth (in words)", "setting": "[1]; stronger than 8l, MLN9708, MLN2238 (p<0.01)", "result": "significantly inhibited tumor growth"}, {"measurement": "Tumor weight", "setting": "[1]; after the 18th day, X ± SD", "result": "0.028 ± 0.025", "unit": "g"}, {"measurement": "Female Suvival", "setting": "SD rats; dose 1, 0.001108 mmol/kg single intragastric dose, 6 female rats, 14 days observation", "result": 6}, {"measurement": "Male Suvival", "setting": "SD rats; dose 1, 0.001108 mmol/kg single intragastric dose, 6 male rats, 14 days observation", "result": 6}, {"measurement": "Female Death", "setting": "SD rats; [3]", "result": 0}, {"measurement": "Female Suvival", "setting": "SD rats; [3]", "result": 6}, {"measurement": "Male Death", "setting": "SD rats; [4]", "result": 0}, {"measurement": "Male Suvival", "setting": "SD rats; [4]", "result": 6}, {"measurement": "Female Suvival", "setting": "SD rats; dose 3, 0.002216 mmol/kg single intragastric dose, 6 female rats, 14 days observation", "result": 6}, {"measurement": "Male Suvival", "setting": "SD rats; dose 3, 0.002216 mmol/kg single intragastric dose, 6 male rats, 14 days observation", "result": 6}, {"measurement": "Female Death", "setting": "SD rats; [5]", "result": 2}, {"measurement": "Female Suvival", "setting": "SD rats; [5]", "result": 4}, {"measurement": "Male Death", "setting": "SD rats; [6]", "result": 0}, {"measurement": "Male Suvival", "setting": "SD rats; [6]", "result": 6}, {"measurement": "maximum tolerance dose", "setting": "SD rats; female rats, single intragastric dose", "result": 0.002216, "unit": "mmol/kg"}, {"measurement": "Female Death", "setting": "SD rats; female, rat, in vivo, 0.001108 mmol/kg, 14 days", "result": 0}, {"measurement": "Female Death", "setting": "SD rats; female, rat, in vivo, 0.002216 mmol/kg, 14 days", "result": 0}, {"measurement": "Male Death", "setting": "SD rats; male, rat, in vivo, 0.001108 mmol/kg, 14 days", "result": 0}, {"measurement": "Male Death", "setting": "SD rats; male, rat, in vivo, 0.002216 mmol/kg, 14 days", "result": 0}, {"measurement": "inhibitory effect on the hERG potassium channel (judged by general standard)", "setting": "hERG potassium channel; judged by the standard of b169", "result": "no inhibitory effect"}, {"measurement": "IC50", "setting": "hERG potassium channel; patch clamp, n 3", "result": "> 30", "unit": "µM"}, {"measurement": "stability under high-temperature and high-humidity accelerated test condition", "setting": "[2]", "result": "better stabilities"}]}
